From US20240407363A1 (priority 2021, published 2024)

Tests used:
X. perforans GEV-485 = test: In vitro MIC and MBC determination in nutrient broth / on NA plates; type: cell-based; conditions: three trials
Protocol: X. perforans strain GEV-485, a copper-resistant strain, was used in this study to evaluate the antibacterial activity of Hx. Working cultures of GEV-485 were retrieved from −80° C. storage vials containing bacterial suspensions in 30% glycerol (v/v). Bacterial cells were taken from the storage, streaked on nutrient agar (NA; Difco™ Sparks, MD) plates and incubated for 48 h at 28° C. and single colonies were picked and streaked on NA plates to ensure bacterial purity for further cultures. NA amended with copper (II) sulfate pentahydrate (CuSO4·5H2O) (Fisher Scientific-Hampton, NH) at 20 ppm, was used as copper tolerance selective agent. To prepare the bacterial inoculum, a single bacterial colony was streaked on NA and incubated for 24 h at 28° C. From those plates, loops of bacterial cells were collected and resuspended in SDW amended with 0.01 M MgSO4. The bacterial concentration was adjusted to ˜5.0×10^8 colony-forming units (CFU)/mL based on an optical density (OD) of 0.3 at 600 nm. The in vitro studies were conducted to determine the minimum inhibitory concentration (MIC), minimum bactericidal concentration (MBC), and the antibacterial activity at different time points.
To determine MIC of Hx against X. perforans GEV-485, individual 96-well plates containing 100 μL of nutrient broth (NB) with varied copper and Hx concentrations were inoculated with 100 μL of the GEV-485 suspension at the concentration of 1.0×10^8 CFU/mL. The final chemical concentrations on the wells were 16, 32, 64, 128, 256, 512, 1024, 2048, 4096 and 8192 mg/L. Three wells with 100 µL of NB and 100 μL of the bacterial suspension were the controls. Solutions in all wells were thoroughly mixed by pipetting. The plate was, then, covered with a lid and incubated under stationary conditions at 28° C. for 24 h. The value of MIC for Hx and copper was determined as the minimum concentration (mg/L), at which the bacterial growth was inhibited (the solution was clear), among all tested concentrations of each chemical. After MIC was determined, an aliquot of 20 μL of the solution from the wells that gave a clear solution was plated on NA. […] The MBC was determined as the minimum concentration, at which >99.9% of the initial bacterial populations were killed and no visible growth of the bacterium was observed on the NA plates among all tested concentrations of antimicrobial agents. The experiment was repeated two more times, with three replications for each treatment.

[1] = system: X. perforans (a copper-resistant strain QL); test: Greenhouse experiment, bacterial spot of tomato (cv. FL 47), compounds sprayed approx. 2 h before inoculation; type: in vivo; conditions: for BS1 average disease severity of bacterial spot on two mostly infected leaves / WHOLE1 disease severity over the whole plant: 10 d after inoculation; for BS2 average disease severity of bacterial spot on two mostly infected leaves / WHOLE2 disease severity over the whole plant: 12 d after inoculation; for BS3 average disease severity of bacterial spot on two mostly infected leaves / WHOLE3 disease severity over the whole plant: 14 d after inoculation; for AUDPC_BS: two mostly infected leaves, 10, 12, 14 days after inoculation; for AUDPC_WHOLE: whole plant, 10, 12, 14 days after inoculation
Protocol: Tomato (cv. FL 47) was seeded in the greenhouse (the highest temperature was set at 82° F.) and the seedlings with two fully expanded leaves (about 3 weeks after seeding) were transplanted to soilless mix in 6-inch pots. One week after transplanting, treatments with the compounds at the test concentrations were sprayed onto plants until runoff approx. 2 h before inoculation with X. perforans. Untreated plants were used as the control (CK). There were five plants in each treatment and one plant served as one replicate. All plants were inoculated by spraying a bacterial suspension of X. perforans (a copper-resistant strain QL) at 1×10^8 CFU/ml until runoff. Inoculated plants were incubated in a moist chamber overnight (approx. 18 h) to ensure and promote infection by X. perforans. Then the inoculated plants were taken out and placed randomly on a bench inside the greenhouse for disease development. Plants were sprayed with mist periodically to stimulate disease development. When lesions on the leaves were apparent, the percentage of leaf area covered by the lesions, either for the two mostly infected leaves or the whole plant, was rated and recorded for each treatment. Disease rating was conducted at least two times. The area under the disease progress curve (AUDPC) was calculated for each treatment to reflect the disease development over a period if disease rating was carried out three times or more.

Xanthomonas perforans = test: Field trials on piperidine and pyrrolidine, bacterial spot of tomato, foliar spray; type: in vivo; conditions: for AUDPC / BS last rating of bacterial spot severity / YIELD: foliar spray at the concentration given with each treatment; for increase of marketable tomato fruit yield compared to the untreated control (CK) / bacterial spot disease severity and AUDPC compared to the untreated control (CK): pyrrolidine at 128 mg/ml; for bacterial spot disease severity and AUDPC compared to the untreated control (CK): foliar sprays, both independent trials, 2021-2022
Description: Tomato seedlings were transplanted in fall for the first trial (trial 1) and spring for the second trial (trial 2). Treatments were started about two weeks after transplanting following weekly applications for a total of eight weeks. Tomato plants were inoculated with the pathogen Xanthomonas perforans (1-5×10^6 cfu/ml) the following day in the afternoon after the third treatment. Disease severity was rated weekly when bacterial spot symptoms were observed, and area under the disease progress curve (AUDPC) was calculated. Tomato fruit were harvested two to three times for each trial and graded according to the USDA standard. Total fruit yield in each treatment and the untreated control (CK) was subjected to statistical analysis using SAS (version 9.2, SAS Institute Inc., Cary, NC, USA). Disease severity of last rating and AUDPC from each trial were analyzed and presented.
All treatments were applied through a foliar spray at specified concentrations. Piperidine and pyrrolidine were evaluated in two independent trials. Tomato cultivar was ‘Red bounty’ in trial 1, and ‘Varsity’ in trial 2.

[2] = first value named of two independent trials, piperidine at 64 mg/ml
[3] = second value named of two independent trials, piperidine at 64 mg/ml

Compound | BS1 average disease severity of bacterial spot on two mostly infected leaves ([1]; 64 mg/L = 64 ppm) | WHOLE1 disease severity over the whole plant ([1]; 64 mg/L = 64 ppm) | BS2 average disease severity of bacterial spot on two mostly infected leaves ([1]; 64 mg/L = 64 ppm) | WHOLE2 disease severity over the whole plant ([1]; 64 mg/L = 64 ppm) | BS3 average disease severity of bacterial spot on two mostly infected leaves ([1]; 64 mg/L = 64 ppm) | WHOLE3 disease severity over the whole plant ([1]; 64 mg/L = 64 ppm) | AUDPC_BS ([1]; 64 mg/L = 64 ppm) | AUDPC_WHOLE ([1]; 64 mg/L = 64 ppm) | AUDPC (Xanthomonas perforans; Trial 1, cv. Red bounty) | BS last rating of bacterial spot severity (Xanthomonas perforans; Trial 1, cv. Red bounty) [b %] | YIELD (Xanthomonas perforans; Trial 1, cv. Red bounty) [a kg/plant] | AUDPC (Xanthomonas perforans; Trial 2, cv. Varsity) [b] | BS last rating of bacterial spot severity (Xanthomonas perforans; Trial 2, cv. Varsity) [b %] | YIELD (Xanthomonas perforans; Trial 2, cv. Varsity) [a kg/plant] | increase of marketable tomato fruit yield compared to the untreated control (CK) (Xanthomonas perforans; [2]) [%] | bacterial spot disease severity and AUDPC compared to the untreated control (CK) (Xanthomonas perforans; piperidine at 64 mg/ml) | increase of marketable tomato fruit yield compared to the untreated control (CK) (Xanthomonas perforans; [3]) [%] | other results
O=S(=O)([O-])[O-].[Cu+2] [Copper (CuSO4), CuSO4, reference compound] |  |  |  |  |  |  |  |  |  |  |  |  |  |  |  |  |  | MIC (X. perforans GEV-485; 28° C. for 24 h, copper-resistant strain): 1024 mg/L; MBC (X. perforans GEV-485; >99.9% of initial bacterial populations killed, no visible growth on NA): 2048 mg/L
C1CCNCC1 [Piperidine, piperidine] | 30.0 a | 10.0 ab | 36.0 a | 28.0 a | 54.0 a | 32.0 a | 546.0 a | 343.0 a | 495.9 bc | 34.6 | 3.88 | 394.9 | 23.8 | 4.38 | 15.5 | significantly (P<0.05) reduced bacterial spot disease severity at the last rating and the overall disease progress | 17.6 | BS1 average disease severity of bacterial spot on two mostly infected leaves ([1]; 32 mg/L = 32 ppm): 24.5 a; WHOLE1 disease severity over the whole plant ([1]; 32 mg/L = 32 ppm): 14.2 a; BS2 average disease severity of bacterial spot on two mostly infected leaves ([1]; 32 mg/L = 32 ppm): 33.0 a; WHOLE2 disease severity over the whole plant ([1]; 32 mg/L = 32 ppm): 26.0 ab; BS3 average disease severity of bacterial spot on two mostly infected leaves ([1]; 32 mg/L = 32 ppm): 35.0 b; WHOLE3 disease severity over the whole plant ([1]; 32 mg/L = 32 ppm): 26.0 ab; bacterial spot disease compared to CK ([1]; at 32 and 64 mg/L alone): failed to reduce the disease; AUDPC_BS ([1]; 32 mg/L = 32 ppm): 439.3 b; AUDPC_WHOLE ([1]; 32 mg/L = 32 ppm): 322.7 ab; effect on disease reduction compared to ManKocide at the label rate of 2.1 mg/ml (Xanthomonas perforans; piperidine at 64 mg/ml, foliar spray): even better than ManKocide®
pyrrolidine | 14.0 bc | 5.1 bc | 15.2 bc | 7.5 cde | 17.5 c | 5.3 c | 219.6 c | 88.7 days | 466.1 c | 31.7 | 3.95 | 401.8 | 23.1 | 3.99 | 15.9 | significantly (P<0.05) reduced bacterial spot disease severity at the last rating and the overall disease progress | 5.6 | BS1 average disease severity of bacterial spot on two mostly infected leaves ([1]; 128 mg/L = 128 ppm): 7.5 c; WHOLE1 disease severity over the whole plant ([1]; 128 mg/L = 128 ppm): 1.5 c; BS2 average disease severity of bacterial spot on two mostly infected leaves ([1]; 128 mg/L = 128 ppm): 9.0 c; WHOLE2 disease severity over the whole plant ([1]; 128 mg/L = 128 ppm): 1.8 de; BS3 average disease severity of bacterial spot on two mostly infected leaves ([1]; 128 mg/L = 128 ppm): 11.0 c; WHOLE3 disease severity over the whole plant ([1]; 128 mg/L = 128 ppm): 3.8 c; bacterial spot disease compared to the untreated control (CK) ([1]; at 64 and 128 mg/L each): significantly (P<0.05) reduced bacterial spot disease; AUDPC_BS ([1]; 128 mg/L = 128 ppm): 127.8 cd; AUDPC_WHOLE ([1]; 128 mg/L = 128 ppm): 31.2 days
